In patent US20240351997A1, “NOVEL PARP7 INHIBITOR AND USE THEREOF” (SHANGHAI QILU PHARMACEUTICAL RESEARCH AND DEVELOPMENT …, priority 2021, published 2024):
pIC50: −log10 of the molar value.

Each compound was assayed against PARP7 (Homo sapiens (Human), UniProt Q7Z3E1) (assay: In vitro enzymology experiment of PARP7 (enzymatic inhibition)).
Format: biochemical
In short: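 Histone-coated plate ADP-ribosylation format: compound preincubated 10 min at room temperature with preincubated (25 °C, 10 min) enzyme mixture; incorporated biotin detected by streptavidin-HRP and QuantaRed fluorescence (Ex550/Em620).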

Sequence of PARP7 (Q7Z3E1 whole entry): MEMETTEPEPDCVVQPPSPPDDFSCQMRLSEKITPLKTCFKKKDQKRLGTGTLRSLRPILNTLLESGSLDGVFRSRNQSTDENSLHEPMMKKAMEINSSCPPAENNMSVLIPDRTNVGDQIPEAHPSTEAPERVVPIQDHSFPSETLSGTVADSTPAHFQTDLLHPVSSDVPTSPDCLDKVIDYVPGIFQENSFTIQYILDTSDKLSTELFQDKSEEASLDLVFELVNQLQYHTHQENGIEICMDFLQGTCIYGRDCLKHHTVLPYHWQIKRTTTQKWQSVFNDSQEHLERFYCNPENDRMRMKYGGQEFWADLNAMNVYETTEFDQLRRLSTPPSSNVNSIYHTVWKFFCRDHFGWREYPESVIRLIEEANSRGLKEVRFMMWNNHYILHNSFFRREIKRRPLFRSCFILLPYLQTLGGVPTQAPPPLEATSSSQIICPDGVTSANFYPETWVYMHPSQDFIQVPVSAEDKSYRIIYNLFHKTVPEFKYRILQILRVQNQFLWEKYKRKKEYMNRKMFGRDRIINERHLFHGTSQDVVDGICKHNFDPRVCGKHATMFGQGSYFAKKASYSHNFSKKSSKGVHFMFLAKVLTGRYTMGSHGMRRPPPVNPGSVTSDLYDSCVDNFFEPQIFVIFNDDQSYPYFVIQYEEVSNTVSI

Structure (SMILES)	pIC50
C[C@@H](Cc1c[nH]c(=O)c(C(F)(F)F)c1)OC(=O)N1CCN(c2ncc(Cl)cn2)CC1 [Example 85, (S)-1-(6-Oxo-5-(trifluoromethyl)-1,6-dihydropyridin-3-yl)propan-2-yl 4-(5-chloropyrimidin-2-yl)piperazine-1-carboxylate]	9.25
O=C(OCCc1c[nH]c(=O)c(C(F)(F)F)c1)N1CC2CCC(C1)N2c1ncc(C(F)(F)F)cn1 [Example 125, 2-(6-Oxo-5-(trifluoromethyl)-1,6-dihydropyridin-3-yl)ethyl 8-(5-(trifluoromethyl)pyrimidin-2-yl)-3,8-diazabicyclo[3.2.1]octane-3-carboxylate]	9.15
CC(CC(=O)N1CCN(c2ncc(C(F)(F)F)cn2)CC1)c1c[nH]c(=O)c(C(F)(F)F)c1 (stereo not drawn) [Example 38, 5-(4-Oxo-4-(4-(5-(trifluoromethyl)pyrimidin-2-yl)piperazin-1-yl)butan-2-yl)-3-(trifluoromethyl)pyridin-2(1H)-one]	8.96
C[C@@H](Cc1c[nH]c(=O)c(C(F)(F)F)c1)OC(=O)N1CC2CN(c3ncc(C(F)(F)F)cn3)CC2C1 (stereo partly drawn) [Example 77, (S)-1-(6-Oxo-5-(trifluoromethyl)-1,6-dihydropyridin-3-yl)propan-2-yl 5-(5-(trifluoromethyl)pyrimidin-2-yl) hexahydropyrrolo[3,4-c]pyrrole-2(1H)-carboxylate]	8.67
Cc1cnc(N2CCN(C(=O)OC(C)Cc3c[nH]c(=O)c(C(F)(F)F)c3)CC2)nc1 (stereo not drawn) [Example 43, 1-(6-Oxo-5-(trifluoromethyl)-1,6-dihydropyridin-3-yl)propan-2-yl 4-(5-methylpyrimidin-2-yl)piperazine-1-carboxylate]	9.05
O=C(CO[C@H]1CCC[C@@H]1c1c[nH]c(=O)c(C(F)(F)F)c1)N1CCN(c2ncc(C(F)(F)F)cn2)CC1 [Example 57, 5-((1R,2S)-2-(2-Oxo-2-(4-(5-(trifluoromethyl)pyrimidin-2-yl)piperazin-1-yl)ethoxy)cyclopentyl)-3-(trifluoromethyl)pyridin-2(1H)-one]	9.13
O=C(CCCc1c[nH]c(=O)c(C(F)(F)F)c1)N1CCN(c2ncc(C(F)(F)F)cn2)CC1 [Example 37, 5-(4-Oxo-4-(4-(5-(trifluoromethyl)pyrimidin-2-yl)piperazin-1-yl)butyl)-3-(trifluoromethyl)pyridin-2(1H)-one]	9.05
O=C(OCCc1c[nH]c(=O)c(C(F)(F)F)c1)N1C2CCC1CN(c1ncc(C(F)(F)F)cn1)C2 [Example 126, 2-(6-Oxo-5-(trifluoromethyl)-1,6-dihydropyridin-3-yl)ethyl 3-(5-(trifluoromethyl)pyrimidin-2-yl)-3,8-diazabicyclo[3.2.1]octane-8-carboxylate]	9.00
O=C(c1cc(Cc2c[nH]c(=O)c(C(F)(F)F)c2)ccc1F)N1CCN(c2ncc(C(F)(F)F)cn2)CC1 [Example 40, 5-(4-Fluoro-3-(4-(5-(trifluoromethyl)pyrimidin-2-yl)piperazine-1-carbonyl)benzyl)-3-(trifluoromethyl)pyridin-2(1H)-one]	9.15
CNC(=O)c1ccc(N2CCN(C(=O)O[C@@H](C)Cc3c[nH]c(=O)c(C(F)(F)F)c3)CC2)cn1 [Example 88, (S)-1-(6-Oxo-5-(trifluoromethyl)-1,6-dihydropyridin-3-yl)propan-2-yl 4-(6-(methylcarbamoyl)pyridin-3-yl)piperazine-1-carboxylate]	8.70
O=C(c1cccc(Cc2c[nH]c(=O)c(C(F)(F)F)c2)c1)N1CCN(c2ncc(C(F)(F)F)cn2)CC1 [Example 30, 3-(Trifluoromethyl)-5-(3-(4-(5-(trifluoromethyl)pyrimidin-2-yl)piperazine-1-carbonyl)benzyl)pyridin-2(1H)-one]	9.05
O=C(COCC1CCCC1c1c[nH]c(=O)c(C(F)(F)F)c1)N1CCN(c2ncc(C(F)(F)F)cn2)CC1 (stereo not drawn) [Example 58, 5-(2-((2-Oxo-2-(4-(5-(trifluoromethyl)pyrimidin-2-yl)piperazin-1-yl)ethoxy)methyl)cyclopentyl)-3-(trifluoromethyl)pyridin-2(1H)-one]	8.50
CC(Cc1c[nH]c(=O)c(C(F)(F)F)c1)OC(=O)N1CCN(c2ncc(Br)cn2)CC1 (stereo not drawn) [Example 63, 1-(6-Oxo-5-(trifluoromethyl)-1,6-dihydropyridin-3-yl)propan-2-yl 4-(5-bromopyrimidin-2-yl)piperazine-1-carboxylate]	8.51
C[C@@H](Cc1c[nH]c(=O)c(C(F)(F)F)c1)OC(=O)NC1CCN(c2ncc(C(F)(F)F)cn2)CC1 [Example 55, (S)-1-(6-Oxo-5-(trifluoromethyl)-1,6-dihydropyridin-3-yl)propan-2-yl (1-(5-(trifluoromethyl)pyrimidin-2-yl)piperidin-4-yl)carbamate]	8.47

Second part, the compound after the results:

pIC50	Structure (SMILES)
8.99	O=C(Cc1cccc(-c2c[nH]c(=O)c(C(F)(F)F)c2)c1)N1CCN(c2ncc(C(F)(F)F)cn2)CC1 [Example 96, 5-(3-(2-Oxo-2-(4-(5-(trifluoromethyl)pyrimidin-2-yl)piperazin-1-yl)ethyl)phenyl)-3-(trifluoromethyl)pyridin-2(1H)-one]
9.12	C[C@@H]1CN(c2ncc(C3CC3)cn2)C[C@@H](C)N1C(=O)O[C@@H](C)Cc1c[nH]c(=O)c(C(F)(F)F)c1 [Example 175, (S)-1-(6-Oxo-5-(trifluoromethyl)-1,6-dihydropyridin-3-yl)propan-2-yl (2R,6R)-4-(5-cyclopropylpyrimidin-2-yl)-2,6-dimethylpiperazine-1-carboxylate]
8.85	Cc1cnc(N2C[C@H](C)N(C(=O)O[C@@H](C)Cc3c[nH]c(=O)c(C(F)(F)F)c3)[C@@H](C)C2)nc1 [Example 171, (S)-1-(6-Oxo-5-(trifluoromethyl)-1,6-dihydropyridin-3-yl)propan-2-yl (2S,6S)-2,6-dimethyl-4-(5-methylpyrimidin-2-yl)piperazine-1-carboxylate]
9.11	C[C@@H]1CN(c2ncc(C(F)(F)F)cn2)C[C@@H](C)N1C(=O)OCCc1c[nH]c(=O)c(C(F)(F)F)c1 [Example 148, 2-(6-Oxo-5-(trifluoromethyl)-1,6-dihydropyridin-3-yl)ethyl (2R,6R)-2,6-dimethyl-4-(5-(trifluoromethyl)pyrimidin-2-yl)piperazine-1-carboxylate]
9.15	Cc1cnc(N2C[C@@H](C)N(C(=O)O[C@@H](C)Cc3c[nH]c(=O)c(C(F)(F)F)c3)C[C@H]2C)nc1 [Example 169, (S)-1-(6-Oxo-5-(trifluoromethyl)-1,6-dihydropyridin-3-yl)propan-2-yl (2R,5R)-2,5-dimethyl-4-(5-methylpyrimidin-2-yl)piperazine-1-carboxylate]
9.05	O=C(Oc1ccc(F)c(-c2c[nH]c(=O)c(C(F)(F)F)c2)c1)N1CCN(c2ncc(C(F)(F)F)cn2)CC1 [Example 139, 4-Fluoro-3-(6-oxo-5-(trifluoromethyl)-1,6-dihydropyridin-3-yl)phenyl 4-(5-(trifluoromethyl)pyrimidin-2-yl)piperazine-1-carboxylate]
9.17	C[C@@H]1CN(C(=O)O[C@@H](C)Cc2c[nH]c(=O)c(C(F)(F)F)c2)CCN1c1ncc(C(F)(F)F)cn1 [Example 94, (S)-1-(6-Oxo-5-(trifluoromethyl)-1,6-dihydropyridin-3-yl)propan-2-yl (R)-3-methyl-4-(5-(trifluoromethyl)pyrimidin-2-yl)piperazine-1-carboxylate]
9.08	Cc1cnc(N2C[C@@H](C)N(C(=O)O[C@@H](C)Cc3c[nH]c(=O)c(C(F)(F)F)c3)C[C@@H]2C)nc1 [Example 172, (S)-1-(6-Oxo-5-(trifluoromethyl)-1,6-dihydropyridin-3-yl)propan-2-yl (2R,5S)-2,5-dimethyl-4-(5-methylpyrimidin-2-yl)piperazine-1-carboxylate]
9.62	O=C(OCCc1c[nH]c(=O)c(C(F)(F)F)c1)N1CCN(c2ncc(C3CCCC3)cn2)CC1 [Example 119, 2-(6-Oxo-5-(trifluoromethyl)-1,6-dihydropyridin-3-yl)ethyl 4-(5-cyclopentylpyrimidin-2-yl)piperazine-1-carboxylate]
9.00	Cc1cnc(N2[C@H](C)CN(C(=O)OCCc3c[nH]c(=O)c(C(F)(F)F)c3)C[C@@H]2C)nc1 [Example 165, 2-(6-Oxo-5-(trifluoromethyl)-1,6-dihydropyridin-3-yl)ethyl (3S,5R)-3,5-dimethyl-4-(5-methylpyrimidin-2-yl)piperazine-1-carboxylate]
